Reference: patent US8207133B1, “Peptides that down regulate the activity of plasma membrane transporters including sodium-D-glucose cotransporter SGLT1” (Julius-Maximilians-Universitat Wurzburg, priority 2005, dated 2012)
Read-outs that look alike come from different tables or passages of the source. Residues, ends and D or L forms follow the SMILES beside them.

Experiments:
hPEPT1 = molecular target: T1, hPEPT1 (Homo sapiens, UniProt P46059); assay: Electrogenic peptide transport by hPEPT1 in oocytes, two-electrode voltage clamp; format: cell-based
T1 construct: expressed in transfected cells; host or cells: Xenopus laevis oocytes (cRNA injection, 30 ng per oocyte)
T1 sequence (P46059 1-708): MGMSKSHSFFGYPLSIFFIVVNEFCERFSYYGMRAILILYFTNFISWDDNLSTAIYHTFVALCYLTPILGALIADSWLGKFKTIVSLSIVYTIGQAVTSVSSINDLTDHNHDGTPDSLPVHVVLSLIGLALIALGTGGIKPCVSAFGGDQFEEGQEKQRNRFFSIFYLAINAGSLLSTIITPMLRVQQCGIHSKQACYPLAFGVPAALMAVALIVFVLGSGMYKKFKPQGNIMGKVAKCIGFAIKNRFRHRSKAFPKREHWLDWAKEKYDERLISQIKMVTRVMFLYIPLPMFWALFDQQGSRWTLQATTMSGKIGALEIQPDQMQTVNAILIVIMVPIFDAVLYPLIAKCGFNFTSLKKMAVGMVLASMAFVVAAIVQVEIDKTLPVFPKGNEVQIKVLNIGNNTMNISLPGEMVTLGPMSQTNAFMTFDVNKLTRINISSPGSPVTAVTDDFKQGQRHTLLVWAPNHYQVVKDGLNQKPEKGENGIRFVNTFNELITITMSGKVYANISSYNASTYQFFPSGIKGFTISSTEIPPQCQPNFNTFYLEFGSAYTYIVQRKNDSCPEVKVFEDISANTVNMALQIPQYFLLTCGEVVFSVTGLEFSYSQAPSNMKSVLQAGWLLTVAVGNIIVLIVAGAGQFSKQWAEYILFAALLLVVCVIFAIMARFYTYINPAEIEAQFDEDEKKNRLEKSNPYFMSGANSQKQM
Experimental: The oocytes were incubated for three days at 16° C. in ORi buffer (in mM: 5 HEPES-Tris, pH 7.4, 100 NaCl, 3 KCl, 2 CaCl2, and 1 MgCl2). […] The oocytes were superfused with Ori buffer titrated to pH 6.5, the membrane potential of the oocytes was clamped to −40 mV, and inward current induced by superfusion with Ori buffer (pH 6.5) containing 5 mM of a control dipeptide or 5 mM of the tested tripeptide was measured.

[1] = tested on: RS1 at the TGN in LLC-PK1 cells; assay: Immunostaining of RS1 in subconfluent LLC-PK1 cells after brefeldin A; format: cell-based; conditions: 2 μg/ml brefeldin A, 1 min or 5 min
Experimental: For immunostaining, LLC-PK1 cells were grown on coverslips to about 50% confluence. The cells were washed twice with washing buffer (5 mM 3-(N-morpholino)propanesulfonic acid-NaOH, pH 7.4, 100 mM NaCl, 3 mM KCl, 2 mM CaCl2, and 1 mM MgCl2), fixed for 12 min with 4% (w/v) paraformaldehyde diluted in washing buffer, and washed twice again. Free aldehyde groups were quenched by 10 min incubation with washing buffer containing 40 mM glycine. For immunoreactions, washed cells were permeabilized by a 10-min incubation with washing buffer containing 0.25% (w/v) TritonX-114, and incubated over night at 4° C. with primary antibodies diluted in washing buffer. The dilutions of primary antibodies were as follows: rabbit-anti-RS1-Ab 1:50 (Valentin (2000), Biochim. Biophys. Acta, 1468, 367-380); QIS30 directed against SGLT1 1:400 (Kipp (2003), Am. J. Physiol., 285, C737-C749), sheep-anti-TGN46 1:125 (from Diagnostic International, Schriesheim, Germany). After incubation with primary antibodies, cells were washed 3 times with washing buffer and incubated for 1 h at room temperature with fluorochrome linked secondary antibodies (goat antibody against rabbit IgG linked to AlexaFluor 488 Molecular Probes, Leiden, Netherlands, and donkey anti-sheep IgG coupled to Cy2 from Dianova, Hamburg, Germany). […]

hOCT2 = conditions: intracellular AMG 0.1 mM, <0.01 mM or 10 mM
Experimental: Corresponding measurements were performed in the presence of intracellular AMG concentrations of 0.1 mM, <0.01 mM or 10 mM.

SGLT1 = conditions: 60 min pre-incubation, pH 6.5, 3 mM QCP, 0.1 mM D-glucose
Experimental: Walls of small intestinal mucosa from mice are inserted into an Ussing chamber and the SGLT1 mediated transepitehila currents are measured that are induced by addition of 0.1 mM D-glucose to the mucosal side. The intestinal walls are pre-incubated for 60 min with buffer at pH 6.5 containing 0.1 mM D-glucose or with buffer at pH 6.5 containing 0.1 mM D-glucose plus 3 mM of QCP. After washing glucose-induced transepithelial currents are measured.

hSGLT1 [2] = assay: hSGLT1 expressed [14C]AMG uptake in Xenopus oocytes after injection of hRS1 protein or hRS1 peptides; format: cell-based, human
[3] = 10 mM QCP in drinking water pH 6.0, 2 months, standard chow or sugar low diet
Excerpt: The body weight development with and without peptide treatment is compared over 2 months.

hSGLT1 [4] = assay: [14C]AMG uptake after incubating oocytes expressing hSGLT1 with or without hPEPT1 with tripeptide in the medium; format: cell-based, human; conditions: pH 6.5
Experimental: In a different experimental setup, oocytes were injected with SGLT1 cRNA (2.5 ng per oocyte) or with hSGLT1 cRNA (2.5 ng per oocyte) plus hPEPT1 cRNA (10 ng per oocyte) and the oocytes were incubated 3 days for expression. Thereafter the oocytes were incubated 30 min with Ori buffer adjusted to pH 6.5 or with Ori buffer adjusted to pH 6.5 containing 3 mM of the tested tripeptide. Thereafter oocytes were washed with Ori buffer (pH 7.4) and uptake of [^14C]AMG was measured.
It was furthermore elucidated whether in human small intestine the expression of hSGLT1 can be inhibited by oral ingestion of QCP. […] Thereafter the oocytes were washed with neutral Ori buffer and the hSGLT1 expressed uptake of 50 μM [^14C]AMG was measured (FIG. 7). QCP had no effect in oocytes in which hSGLT1 but not hPEPT1 was expressed (data not shown). However, in oocytes expressing hSGLT1 plus hPEPT1, [^14C]AMG uptake was inhibited by about 50% when the oocytes had been incubated with QCP (FIG. 7). Incubation of oocytes expressing hSGLT1 plus hPEPT1 with PCQ had no effect on the expressed uptake of [^14C]AMG.

[5] = tested on: sodium dependent amino acid transporters; conditions: 60 min, pH 6.5, 3 mM QCP, 10 mM amino acids
Experimental: Walls of small intestinal mucosa from mice are inserted into an Ussing chamber and transepitehial currents are measured that are induced by addition of 10 mM of various amino acids to the mucosal side. The intestinal walls are incubated for 60 min with buffer at pH 6.5 containing 0.1 mM D-glucose or with buffer at pH 6.5 containing 0.1 mM D-glucose plus 3 mM of QCP. After washing, amino acid induced transepithelial currents without and with preteatment with QCP are compared.

Compound: NCC(=O)N[C@@H](CCC(N)=O)C(=O)O [GC, glycylglutamine, reference compound] (H-Gly-Gln-OH)
- inward currents in oocytes expressing hPEPT1 (hPEPT1; 5 mM peptide, pH 6.5, clamped to -40 mV): significant inward currents
- inward currents in control oocytes not injected with hPEPT1 cRNA (hPEPT1; data not shown): no inward currents

Compound: C[C@H]1CCC/C=C/[C@@H]2C[C@H](O)C[C@H]2[C@H](O)/C=C/C(=O)O1 [brefeldin A]
- immunoreactivity of RS1 at the perinuclear compartment [1]: disappeared within several minutes

Compound: Glutamine-Cysteine-Proline [QCP]
- hOCT2 expressed [14C]TEA uptake after injection (hOCT2): appears not to be inhibited
- inward currents in control oocytes not injected with hPEPT1 cRNA (hPEPT1): no inward currents
- inward currents in oocytes expressing hPEPT1 (hPEPT1; pH 6.5): significant inward currents
- transepithelial glucose flux (SGLT1): inhibits transepithelial glucose flux
- AMG uptake inhibition in the absence of BTXB (hSGLT1 [2]): inhibited
- AMG uptake inhibition in the presence of BTXB (hSGLT1 [2]): no significant inhibition
- inhibition of glucose uptake expressed by hSGLT1 (hSGLT1 [2]): about 50%
- inhibition of hSGLT1 expressed AMG uptake after stimulation of protein kinase C (hSGLT1 [2]): not changed
- inhibition of hSGLT1 expressed AMG uptake with coexpressed dominant negative mutant of dynamin I (hSGLT1 [2]): not changed
- inhibition of hSGLT1 expressed uptake of AMG after 3 h (hSGLT1 [2]): 60%
- inhibition of hSGLT1 expressed uptake of AMG after 5 h (hSGLT1 [2]): about 40%
- inhibition of hSGLT1 expressed uptake of AMG after 10 h (hSGLT1 [2]): 20-30%
- inhibitory effect on expression of hSGLT1 when the exocytotic pathway was blocked (hSGLT1 [2]): could be prevented
- intracellular concentration of QCP at which 35-40% inhibition was obtained (hSGLT1 [2]): below 5 nM
- inhibition of hSGLT1 expressed AMG uptake (hSGLT1 [2]; 0.05 µM): 35-40%
- body weight [3]: body weight is reduced
- effect on AMG uptake in oocytes expressing hSGLT1 but not hPEPT1 (hSGLT1 [4]): no effect
- inhibition of [14C]AMG uptake in oocytes expressing hSGLT1 plus hPEPT1 (hSGLT1 [4]): about 50%
- transepithelial flux of amino acids [5]: inhibits transepithelial flux of amino acids

Compound: SDSDRIEP [Serine-Aspartic acid-Serine-Aspartic acid-Arginine-Isoleucine-Glutamic acid-Proline, octapeptide of hRS1, amino acid positions 43 to 50]
- inhibition of glucose uptake expressed by hSGLT1 (hSGLT1 [2]): about 50%
- inhibition of hSGLT1 expressed AMG uptake after stimulation of protein kinase C (hSGLT1 [2]): not changed
- inhibition of hSGLT1 expressed AMG uptake with coexpressed dominant negative mutant of dynamin I (hSGLT1 [2]): not changed
- inhibitory effect on expression of hSGLT1 when the exocytotic pathway was blocked (hSGLT1 [2]): could be prevented

Compound: SVQPCQENQ [reverse nonapeptide of […], reference compound]
- inhibition of uptake of 50 μM [14C]AMG (hSGLT1 [2]; 50 nl/oocyte containing 1.5 mM peptide injected, 30 min): No inhibition
